Experimental findings from US6476189B1, “Antibacterial peptides and antibacterial agents containing such peptides as an effective ingredient” (National Institute of Agrobiological Sciences, priority 1998, dated 2002) are described below.

Values after ≈ are worked out from the molar mass of the structure shown. Residues, ends and D or L forms follow the SMILES beside them.

Holding throughout (format): cell-based
For one test, the system named is Staphylococcus aureus. Here is the method:
(§1) Minimum Inhibitory Concentration (MIC) of these antibacterial peptides (1) to (5) against Staphylococcus aureus, methicillin resistant Staphylococcus aureus (MRSA), Escherichia coli and Pseudomonas aeruginosa was determined.

A further test deals with Pseudomonas aeruginosa. On the procedure: as §1
The test system of test [1] is methicillin resistant Staphylococcus aureus (MRSA). Here is the method:
as §1

In the case of `CC[C@H](C)[C@H](NC(=O)[C@H](C)NC(=O)[C@H](CC(C)C)NC(=O)[C@H](CCCNC(=N)N)NC(=O)[C@H](CC(C)C)NC(=O)[C@H](C)N)C(=O)N[C@@H](CCCNC(=N)N)C(=O)N[C@@H](CCCCN)C(=O)N[C@@H](CCCNC(=N)N)C(N)=O` [present peptide (1), Ala-Leu-Arg-Leu-Ala-Ile-Arg-Lys-Arg-NH2] (H-ALRLAIRKR-NH2; N-terminus assumed), the “MIC S. aureus” value against Staphylococcus aureus came out at 5 µg/mL (≈ 4.56 µM). Also, in the test on Pseudomonas aeruginosa, the “MIC P. aeruginosa” value is above 15 µg/mL.

Take `CC[C@H](C)[C@H](NC(=O)[C@H](C)NC(=O)[C@H](CC(C)C)NC(=O)[C@H](CC(C)C)NC(=O)[C@H](CC(C)C)NC(=O)[C@H](C)N)C(=O)N[C@@H](CCCNC(=N)N)C(=O)N[C@@H](CCCCN)C(=O)N[C@@H](CCCNC(=N)N)C(N)=O` [present peptide (2), Ala-Leu-Leu-Leu-Ala-Ile-Arg-Lys-Arg-NH2] (H-ALLLAIRKR-NH2; N-terminus assumed): in the test with Staphylococcus aureus, the “MIC S. aureus” value was found to be 4 µg/mL (≈ 3.8 µM). In addition, the “MIC P. aeruginosa” value against Pseudomonas aeruginosa stood at 4 µg/mL (≈ 3.8 µM). Further, in test [1], the “MIC MRSA” value came out at 40 µg/mL (≈ 38 µM).

For `CC[C@H](C)[C@H](NC(=O)[C@H](C)NC(=O)[C@H](CC(C)C)NC(=O)[C@H](CC(C)C)NC(=O)[C@H](Cc1c[nH]c2ccccc12)NC(=O)[C@H](C)N)C(=O)N[C@@H](CCCNC(=N)N)C(=O)N[C@@H](CCCCN)C(=O)N[C@@H](CCCNC(=N)N)C(N)=O` [present peptide (3), Ala-Trp-Leu-Leu-Ala-Ile-Arg-Lys-Arg-NH2] (H-AWLLAIRKR-NH2; N-terminus assumed), the “MIC S. aureus” value against Staphylococcus aureus was found to be 3 µg/mL (≈ 2.67 µM). In the test on Pseudomonas aeruginosa, the “MIC P. aeruginosa” value stood at 4 µg/mL (≈ 3.55 µM). Further, in test [1], the “MIC MRSA” value was found to be 25 µg/mL (≈ 22.2 µM).

Turning to `CC[C@H](C)[C@H](NC(=O)[C@H](C)NC(=O)[C@H](CC(C)C)NC(=O)[C@H](Cc1ccc(O)cc1)NC(=O)[C@H](CC(C)C)NC(=O)[C@H](C)N)C(=O)N[C@@H](CCCNC(=N)N)C(=O)N[C@@H](CCCCN)C(=O)N[C@@H](CCCNC(=N)N)C(N)=O` [present peptide (4), Ala-Leu-Tyr-Leu-Ala-Ile-Arg-Lys-Arg-NH2], the “MIC S. aureus” value against Staphylococcus aureus came out at 2 µg/mL (≈ 1.81 µM). Further, in the test with Pseudomonas aeruginosa, the “MIC P. aeruginosa” value amounted to 4 µg/mL (≈ 3.63 µM). Besides, in test [1], the “MIC MRSA” value worked out at 30 µg/mL (≈ 27.2 µM).

With `CC[C@H](C)[C@H](NC(=O)[C@H](C)NC(=O)[C@H](CC(C)C)NC(=O)[C@H](Cc1c[nH]c2ccccc12)NC(=O)[C@H](CC(C)C)NC(=O)[C@H](C)N)C(=O)N[C@@H](CCCNC(=N)N)C(=O)N[C@@H](CCCCN)C(=O)N[C@@H](CCCNC(=N)N)C(N)=O` [present peptide (5), Ala-Leu-Trp-Leu-Ala-Ile-Arg-Lys-Arg-NH2] (H-ALWLAIRKR-NH2; N-terminus assumed), the “MIC S. aureus” value against Staphylococcus aureus came to 4 µg/mL (≈ 3.55 µM). Besides, the “MIC P. aeruginosa” value with Pseudomonas aeruginosa turned out to be 10 µg/mL (≈ 8.89 µM). In test [1], the “MIC MRSA” value turned out to be 40 µg/mL (≈ 35.5 µM).
